Reference: patent US11076595B2, “1-(n,n-disubstituted carbamoyl) 4-(substituted sulfonyl)triazolin-5-one derivative, 4-(n,n-disubstituted carbamoyl) 1-(substituted sulfonyl)triazolin-5-one derivative, and herbicide containing said derivative as active ingredient” (HOKKO CHEMICAL INDUSTRY CO., LTD., priority 2017, dated 2021)

How the values were obtained:
Assay type in all cases: in vivo
Lindernia pyxidaria [1] = experiment: Test Example 2: herbicidal effect test by treatment during growing period in paddy field; conditions: treatment 7 days after sowing, 120 g/10a, evaluated 14 days after treatment
Experimental: (§1) This test was performed with two replications per one formulation concentration plot, and 14 days after the formulation treatments, the weed suppression rate (%) was determined according to the following equation (Math. 1). Weed suppression rate (%)=(1−an average dry weight (g) of plants in treated plots/an average dry weight (g) of plants in untreated plots)×100 [Math. 1]
(§2) A Wagner pot having an area of 1/10000 are was filled with paddy field soil and after adding water, a chemical fertilizer (N:P:K=17:17:17) was mixed, followed by puddling. Thereafter, 30 grains of each of Echinochloa crus-galli, broad-leaved weed (Lindernia pyxidaria and Monochoria vaginalis) and Scirpus juncoides seeds were sown to a depth of 0 to 1 cm. Immediately after the sowing, the pot was flooded, and the depth of water was kept at about 3 cm. The pot was subsequently managed in a glass greenhouse. Seven days after sowing, an emulsifiable concentrate prepared according to Formulation Example 5 by using the compound shown in Table 6 below was diluted with water, and a predetermined amount of the water-diluted formulation was added dropwise. The application rate of the active ingredient, by conversion, corresponded to 120 g per 10 are. The test was performed with two replications per one formulation concentration plot, and 14 days after the formulation treatments, the weed suppression rate (%) was determined according to the equation (Math. 1).

Scirpus juncoides [2] = experiment: as above; conditions: treatment 7 days after sowing, 120 g/10a, evaluated 14 days after treatment
Experimental: as §1, §2

Echinochloa crus-galli [3] = experiment: as above; conditions: treatment 7 days after sowing, 120 g/10a, evaluated 14 days after treatment
Experimental: as §1, §2

Monochoria vaginalis [4] = experiment: as above; conditions: treatment 7 days after sowing, 120 g/10a, evaluated 14 days after treatment
Experimental: as §1, §2

Lindernia pyxidaria [5] = experiment: Test Example 1: herbicidal effect test by soil treatment in paddy field; conditions: 120 g/10a, paddy soil treatment just after sowing, 14 days after treatment
Excerpt: as §2, with “greenhouse. Just” for “greenhouse. Seven days”, “after that,” for “after sowing,”, “Table 5” for “Table 6”, “are.” for “are. The test was performed with two replications per one formulation concentration plot, and 14 days after the formulation treatments, the weed suppression rate (%) was determined according to the equation (Math. 1).”
as §1

Scirpus juncoides [6] = experiment: as above; conditions: 120 g/10a, paddy soil treatment just after sowing, 14 days after treatment
Excerpt: as §2, with “greenhouse. Just” for “greenhouse. Seven days”, “after that,” for “after sowing,”, “Table 5” for “Table 6”, “are.” for “are. The test was performed with two replications per one formulation concentration plot, and 14 days after the formulation treatments, the weed suppression rate (%) was determined according to the equation (Math. 1).”
as §1

Echinochloa crus-galli [7] = experiment: as above; conditions: 120 g/10a, paddy soil treatment just after sowing, 14 days after treatment
Excerpt: as §2, with “greenhouse. Just” for “greenhouse. Seven days”, “after that,” for “after sowing,”, “Table 5” for “Table 6”, “are.” for “are. The test was performed with two replications per one formulation concentration plot, and 14 days after the formulation treatments, the weed suppression rate (%) was determined according to the equation (Math. 1).”
as §1

Monochoria vaginalis [8] = experiment: as above; conditions: 120 g/10a, paddy soil treatment just after sowing, 14 days after treatment
Excerpt: as §2, with “greenhouse. Just” for “greenhouse. Seven days”, “after that,” for “after sowing,”, “Table 5” for “Table 6”, “are.” for “are. The test was performed with two replications per one formulation concentration plot, and 14 days after the formulation treatments, the weed suppression rate (%) was determined according to the equation (Math. 1).”
as §1

| SMILES | weed suppression rate, Lindemia pyxidaria (Lindernia pyxidaria [1]) | weed suppression rate, Scirpus juncoides (Scirpus juncoides [2]) | weed suppression rate, Echinochloa crus-galli (Echinochloa crus-galli [3]) | weed suppression rate, Monochoria vaginalis (Monochoria vaginalis [4]) | weed suppression rate, Lindemia pyxidaria (Lindernia pyxidaria [5]) | weed suppression rate, Scirpus juncoides (Scirpus juncoides [6]) | weed suppression rate, Echinochloa crus-galli (Echinochloa crus-galli [7]) | weed suppression rate, Monochoria vaginalis (Monochoria vaginalis [8]) |
| --- | --- | --- | --- | --- | --- | --- | --- | --- |
| CC(C)N(C(=O)n1ncn(S(=O)(=O)C2CCCCC2)c1=O)c1c(F)cc(F)cc1F [Compound 1-310] | 100% | 100% | 100% | 100% | 100% | 100% | 100% | 100% |
| CC(C)N(C(=O)n1ncn(S(=O)(=O)C2CCCCC2)c1=O)c1ccc(Cl)cc1F [Compound 1-314] | 100% | 100% | 90% | 90% | 100% | 100% | 100% | 80% |
| Cc1ccc(N(C(=O)n2ncn(S(=O)(=O)C3CCCCC3)c2=O)C(C)C)c(F)c1 [Compound 1-320] | 80% | 90% | 90% | 80% | 90% | 90% | 90% | 90% |
| Cc1ccc(N(C(=O)n2ncn(S(=O)(=O)C3CCCCC3)c2=O)C(C)C)c(Cl)c1 [Compound 1-322] | 80% | 90% | 90% | 80% | 90% | 90% | 90% | 90% |
| CC(C)N(C(=O)n1ncn(S(=O)(=O)C2CCCCC2)c1=O)c1ccc(C(F)(F)F)cc1F [Compound 1-323] | 70% | 70% | 100% | 70% | 100% | 100% | 100% | 80% |
| CC(C)N(C(=O)n1ncn(S(=O)(=O)C2CCCCC2)c1=O)c1ccc(C#N)cc1Cl [Compound 1-328] | 80% | 90% | 90% | 80% | 80% | 90% | 90% | 80% |
| CC(C)N(C(=O)n1ncn(S(=O)(=O)C2CCCCC2)c1=O)c1ccc(Cl)nc1 [Compound 1-338] | 80% | 90% | 90% | 80% | 90% | 100% | 100% | 90% |
| Cc1ccc(S(=O)(=O)n2cnn(C(=O)N(c3ccc(Cl)nc3Cl)C(C)C)c2=O)cc1 [Compound 1-690] | 90% | 90% | 100% | 90% | 100% | 90% | 100% | 90% |
| Cc1cc(C)c(S(=O)(=O)n2cnn(C(=O)N(c3cccnc3F)C(C)C)c2=O)c(C)c1 [Compound 1-921] | 80% | 70% | 80% | 60% | 80% | 70% | 90% | 60% |
